For one assay, the target named is T1, recombinant human DAGLα (Homo sapiens, UniProt Q9Y4D2).
T1 sequence (Q9Y4D2 1-1042): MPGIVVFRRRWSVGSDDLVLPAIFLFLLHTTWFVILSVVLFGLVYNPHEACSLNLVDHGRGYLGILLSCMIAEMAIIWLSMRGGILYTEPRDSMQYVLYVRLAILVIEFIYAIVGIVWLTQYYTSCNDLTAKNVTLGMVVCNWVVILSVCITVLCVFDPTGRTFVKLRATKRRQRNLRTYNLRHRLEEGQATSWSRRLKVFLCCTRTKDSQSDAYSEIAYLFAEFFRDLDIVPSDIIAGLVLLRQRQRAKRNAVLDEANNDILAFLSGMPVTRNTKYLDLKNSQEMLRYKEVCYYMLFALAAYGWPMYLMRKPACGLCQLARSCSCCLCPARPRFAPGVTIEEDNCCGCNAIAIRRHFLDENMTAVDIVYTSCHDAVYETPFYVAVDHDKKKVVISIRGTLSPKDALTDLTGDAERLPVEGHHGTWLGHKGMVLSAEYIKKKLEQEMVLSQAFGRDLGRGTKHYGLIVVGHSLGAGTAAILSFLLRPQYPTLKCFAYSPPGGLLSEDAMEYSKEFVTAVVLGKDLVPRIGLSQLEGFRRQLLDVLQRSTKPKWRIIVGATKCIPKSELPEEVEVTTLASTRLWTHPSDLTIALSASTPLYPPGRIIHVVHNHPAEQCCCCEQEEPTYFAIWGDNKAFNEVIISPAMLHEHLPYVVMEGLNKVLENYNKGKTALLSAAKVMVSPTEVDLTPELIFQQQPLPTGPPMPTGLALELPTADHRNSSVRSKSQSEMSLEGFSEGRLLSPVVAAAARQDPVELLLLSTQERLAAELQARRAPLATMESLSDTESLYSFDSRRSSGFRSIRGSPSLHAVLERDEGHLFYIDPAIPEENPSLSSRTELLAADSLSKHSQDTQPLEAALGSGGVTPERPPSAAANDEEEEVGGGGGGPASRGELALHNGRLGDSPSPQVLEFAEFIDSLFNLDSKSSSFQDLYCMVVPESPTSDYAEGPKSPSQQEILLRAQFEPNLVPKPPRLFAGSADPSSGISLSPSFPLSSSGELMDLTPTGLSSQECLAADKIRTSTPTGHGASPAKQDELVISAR
The assay is described as follows: colorimetric DAGLα activity assay. It is filed as biochemical. The settings on record: for LipE: LipE = pIC50 - cLogP; for fold drop in potency/activity: 2 compared to 1, 109 compared to 1, 122 compared to oleoyl analogue 121.

Assay [1] has as its system panel of serine hydrolases. The settings on record: gel-based competitive ABPP; FAAH only detected off-target; ref [12], [13]; cited from earlier work.
The next assay deals with FAAH. The assay is described as follows: FAAH activity reported in the literature. The settings on record: DAGLα pIC50 versus previously reported FAAH pKi. It is filed as biochemical.

The text below walks through data of publication PMC4690813 (Journal of medicinal chemistry, 2015).

For the molecule `O=C(CCCCCc1ccccc1)c1nc2ncccc2o1` [Compound 1, 1-(Oxazolo[4,5-b]pyridin-2-yl)-6-phenylhexan-1-one], on recombinant human DAGLα, the LipE was determined as 3.35. Further, the “selectivity over a panel of serine hydrolases” value in assay [1] is reported as “highly selective”.
As to `O=C(CCCCCCc1ccccc1)c1nc(C(=O)C(F)(F)F)co1` [Compound 45], the “selectivity over FAAH” value with FAAH is on record as “selective over FAAH”.
Take `O=C(CCc1ccccc1)c1nc2ncccc2o1` [Compound 106, 1-(Oxazolo[4,5-b]pyridin-2-yl)-3-phenylpropan-1-one]: the LipE at recombinant human DAGLα stood at 2.11.
Same read-out and setting: as for `O=C(CCCc1ccccc1)c1nc2ncccc2o1` [Compound 107, 1-(Oxazolo[4,5-b]pyridin-2-yl)-4-phenylbutan-1-one], the figure is 2.64; as for `O=C(CCCCc1ccccc1)c1nc2ncccc2o1` [Compound 108, 1-(Oxazolo[4,5-b]pyridin-2-yl)-5-phenylpentan-1-one], 3.15.
`O=C(CCCCCCc1ccccc1)c1nc2ncccc2o1` [Compound 109, 1-(Oxazolo[4,5-b]pyridin-2-yl)-7-phenylheptan-1-one]: on recombinant human DAGLα, the “fold drop in potency/activity” value was above 10 fold and the LipE is 1.68.
In the case of `O=C(CCCCCCCc1ccccc1)c1nc2ncccc2o1` [Compound 110, 1-(Oxazolo[4,5-b]pyridin-2-yl)-8-phenyloctan-1-one], on recombinant human DAGLα, the LipE was 2.20.
Consider `O=C(CCCCCCCCc1ccccc1)c1nc2ncccc2o1` [Compound 111], for which the LipE on recombinant human DAGLα stood at 2.78.
Take `CCCCC/C=C\C/C=C\C/C=C\C/C=C\CCCC(=O)c1nc2ncccc2o1` [Compound 122]: on recombinant human DAGLα, the “fold drop in potency/activity” value is recorded as around 100 fold.
As for `CCCCCCCC/C=C\CCCCCCCC(=O)c1nc2ccccc2[nH]1` [Compound 123], the “selectivity over FAAH” value in the assay with FAAH is reported as “selective over FAAH”.
`O=C(CCCCCCc1ccccc1)c1ncc(-c2ccccn2)o1` [OL-135, reference compound]: the “DAGLα inhibitor activity (in words)” value at recombinant human DAGLα was “not active”.
